Laboratory results as given in patent US20230324419A1, “METHOD FOR DIAGNOSING ACTING OF NERVONIC ACID AND USE THEREOF” (BAO FENG BIOTECH (BEIJING) CO., LTD, priority 2020, published 2023).

Columns and labels:
[1] = Serum lipid content before and after taking acer truncatum bunge seed oil in patients with demyelinating disease; type: in vivo, human
Excerpt: For sample detection, sample pretreatment and ultra-high performance liquid chromatography-mass spectrometry in Example 1 were used. At the same time, standard SM(d17:1/24:1) and Cer(d18:1/24:1(15Z)) were used as reference for detection.

[2] = Changes of serum lipids containing nervonic acid chains after taking acer truncatum bunge seed oil for different days; type: in vivo, SD rats; details: for blood levels after taking acer truncatum bunge seed oil compared with before taking: rat blood; for serum lipid content, Day 1 (NA1) / serum lipid content, Day 3 (NA3) / serum lipid content, Day 7 (NA7) / difference in content between the third and the seventh day of administration / content compared with the normal group: rat serum; for serum lipid content, Day 1 (NA1) / serum lipid content, Day 3 (NA3) / serum lipid content, Day 7 (NA7): acer truncatum bunge seed oil group, nervonic acid 0.03 g/kg/d by gavage; for difference in content between the third and the seventh day of administration: day 3 vs day 7; for content compared with the normal group: oil group vs normal control group; for NA7/NA1: ratio of serum content day 7 to day 1
Method: The collected serum samples were thawed on ice, 200 µL plasma was extracted with 600 µL pre-cooled isopropanol, vortexed for 1 min, and incubated at room temperature for 10 min. Then the extraction mixture was stored overnight at -20° C., centrifuged at 4000r for 20 min, and the supernatant was transferred to a new centrifuge tube, diluted with isopropanol/acetonitrile/water (2:1:1, v:v:v) to 1:10. The samples were stored at -80° C. before LC-MS analysis. In addition, 10 µL of each extraction mixture was combined to prepare mixed plasma samples.
The mixed plasma samples were analyzed using ACQUITY UPLC(Waters, USA) connected to the Xevo-G2XS High Resolution Time of Flight (QTOF) Mass spectrometer (Waters) with ESI. CQUITY UPLC BEH C18 column (2.1× 100 mm, 1.7 µm, Waters), and mobile phase consisted of 10 mM ammonium formate-0.1% formic acid-acetonitrile (A, 60: 40, v/v) and 10 mM ammonium formate-0.1% formic acid-isopropanol-acetonitrile (B, 90:10, v/v) were used. Pilot trials with 10-, 15-, and 20-minute washout periods were conducted prior to the large-scale study to assess the potential impact of mobile phase composition and flow rate on lipid retention time. In PIM, rich lipid precursor ions and fragments separated in the same order, with similar peak shapes and ionic strengths. […] The flow rate of mobile phase was 0.4 mL/min. The column was initially eluted with 40% B, 43% B in 2 min according to linear gradient, and 50% B within 0.1 min, 54%B in 3.9 minutes according to linear gradient, and 70% B within 0.1 min. In the last part of the gradient, the amount of B increased to 99% in 1.9 minutes. Finally, solution B was returned to 40% within 0.1 min and the column was balanced for 1.9 min before the next sample injection. The lipids were detected by Xevo-G2XS QTOF mass spectrometer with a sample size of 5 µL/time, collection range of m/z50~1200 […], and collection time of 0.2 s/time. The ion source temperature was 120° C., the desolutizing temperature was 600° C., the gas flow rate was 1000 L/h, and nitrogen was used as the flowing gas. The capillary voltage was 2.0 kV(+)/the […] was 1.5 kV(-), and the cone voltage was 30 V. A standard quality determination was carried out using leucine enkephalin and corrected with sodium formate solution. The samples were sorted randomly. A quality control (QC) sample was injected into every 10 samples and analyzed to investigate repeatability of the data.
50 male SD rats aged 5-6 weeks were randomly divided into 2 groups, which were acer truncatum bunge seed oil group (NA group) and normal control group (CK group). After 1 week of adaptive feeding, rats in each group entered into the experiment. Acer truncatum bunge seed oil group was administrated by gavage according to the content of nervonic acid 0.03 g/kg/d, once a day, and blood was collected after 1, 3 and 7 days. The normal control group was fed routinely, and the blood was collected at the same time as the acer truncatum bunge seed oil group for the detection of lipid SM(d17:1/24:1) and Cer(d18:1/24:1(15Z)) with the nervonic acid chain.

[3] = human, once a day for one month; cited from earlier work
[4] = after 1 day of taking the oil, individual patients

serum lipid content relative to before taking acer truncatum bunge seed oil ([1]; after 7-day of taking the oil) [times] | serum lipid content relative to before taking acer truncatum bunge seed oil [1, 4] [times] | blood levels after taking acer truncatum bunge seed oil compared with before taking [2] | serum lipid content, Day 1 (NA1) [2] | serum lipid content, Day 3 (NA3) [2] | serum lipid content, Day 7 (NA7) [2] | difference in content between the third and the seventh day of administration [2] | content compared with the normal group [2] | NA7/NA1 [2] | Molecule | test indexes (mind, picture, recognition, association, sence of touch, understanding) compared with the control group [3]
1.22 | 1.15 | more than 1.2 times | 245574.2 | 340912.8 | 291861.8 | no significant difference | increased | 1.2 | SM(d17:1/24:1) | –
1.45 | 1.23 | > 1.3 times | 135883.1 | 209352.5 | 172840.3 | no significant difference | increased | 1.3 | CCCCCCCC/C=C\CCCCCCCCCCCCCC(=O)N[C@@H](CO)[C@H](O)/C=C/CCCCCCCCCCCCC [Cer(d18:1/24:1(15Z))] | –
– | – | – | – | – | – | – | – | – | CCCCCCCC/C=C\CCCCCCCCCCCCCC(=O)O [nervonic acid, cis-15-Tetracosenic acid] | significantly improved
